In US4339535A, “Process for preparing antibiotic EM 4940” (E. R. Squibb & Sons, Inc., priority 1980, dated 1982):
In brackets after ≈: the same amount, converted by molar mass. Read-outs that look alike come from different tables or passages of the source.

Experiments:
Streptococcus faecalis = assay: MIC aerobic screen, H-59 synthetic agar; conditions: Enterococcus faecalis, read-out: Minimum Inhibitory Concentration
Pseudomonas aeruginosa [1] = assay: MIC aerobic screen, H-59 synthetic agar
Enterobacter cloacae [2] = assay: MIC aerobic screen, H-59 synthetic agar; conditions: read-out: Minimum Inhibitory Concentration
Bifidobacterium dentium = assay: MIC anaerobic screen; assay type: cell-based; conditions: Table IV, strain 11,260, read-out: Minimum Inhibitory Concentration
Acholeplasma laidlawii = assay: MIC against mycoplasmas; assay type: cell-based; conditions: Table VIII, 48 hours, 37° C., phenol red color change
Serratia marcescens [3] = assay: MIC aerobic screen, BA-2 agar; conditions: Serratia marcescens
[4] = system: Peptostreptococcus anaerobius; assay: MIC anaerobic screen; assay type: cell-based; conditions: Table IV, strain 11,263, read-out: Minimum Inhibitory Concentration
Enterobacter cloacae [5] = assay: MIC aerobic screen, BA-2 agar; conditions: Enterobacter cloacae, strain 10,459
Proteus rettgeri = assay: MIC aerobic screen, BA-2 agar; conditions: Providencia rettgeri, read-out: Minimum Inhibitory Concentration
solubility = assay type: physicochemical
[6] = system: Acinetobacter calcoaceticus; assay: MIC aerobic screen, H-59 synthetic agar; conditions: read-out: Minimum Inhibitory Concentration
Escherichia coli = assay: MIC aerobic screen, H-59 synthetic agar
Shigella sonnei = assay: MIC aerobic screen, BA-2 agar; assay type: cell-based; conditions: strain 8449
Pseudomonas aeruginosa [7] = assay: MIC aerobic screen, BA-2 agar; conditions: Pseudomonas aeruginosa
Trichomonas vaginalis = assay: MIC against Trichomonas vaginalis; assay type: cell-based; conditions: Table VII, strain 8560, anaerobic, 37° C., 40 hours, read-out: Minimum Inhibitory Concentration
M. canis = assay: MIC against dermatophytes; assay type: cell-based; conditions: Microsporum canis; Table VI; strain 9237; 26° C., 48 hours; read-out: Minimum Inhibitory Concentration
[8] = system: Acinetobacter calcoaceticus; assay: MIC aerobic screen, BA-2 agar; conditions: Acinetobacter calcoaceticus, strain 8333
Clostridium sporogenes = assay: MIC anaerobic screen; assay type: cell-based; conditions: Table IV, strain 2372, read-out: Minimum Inhibitory Concentration
Method: (§1) The antibiotic is prepared as described above for the aerobic screen.
(§2) All organisms are maintained in a tube of chopped meat broth with glucose supplied by Scott Laboratories in Rhode Island. Two days prior to running the test 0.1 ml of the maintained culture is transferred to a fresh tube of chopped meat broth, and the tube is incubated at 37° C. for 48 hours. After 48 hours incubation each culture is assumed to have grown to 1×10^8 CFU/ml.
(§3) The organisms are stamped onto antibiotic containing agar plates (Mueller Hinton Agar BBL+5% whole sheep blood+0.2% lysed sheep blood) to give an inoculum level of 10^5 CFU.
(§4) After stamping, the plates are placed in an anaerobic gas pack system (BBL) and incubated at 37° C. for 18 hours.

Clostridium septicum = assay: MIC anaerobic screen; assay type: cell-based; conditions: Table IV, strain 1780, read-out: Minimum Inhibitory Concentration
Method: as §1, §2, §3, §4

[9] = system: Fusobacterium necrophorum; assay: MIC anaerobic screen; assay type: cell-based; conditions: Table IV, strain 11,338, read-out: Minimum Inhibitory Concentration
Method: as §1, §2, §3, §4

Clostridium histolyticum = assay: MIC anaerobic screen; assay type: cell-based; conditions: Hathewaya histolytica, Table IV, strain 8572, read-out: Minimum Inhibitory Concentration
Method: as §1, §2, §3, §4

Eubacterium lentum = assay: MIC anaerobic screen; assay type: cell-based; conditions: Eggerthella lenta, Table IV, strain 11,261, read-out: Minimum Inhibitory Concentration
Method: as §1, §2, §3, §4

Serratia marcescens [10] = assay: MIC aerobic screen, H-59 synthetic agar
Hemophilus vaginalis = assay: MIC anaerobic screen; assay type: cell-based; conditions: Table IV
Klebsiella aerogenes = assay: MIC aerobic screen, BA-2 agar; conditions: Klebsiella aerogenes, strain 10,436
E. floccosum = assay: MIC against dermatophytes; assay type: cell-based; conditions: Epidermophyton floccosum; Table VI; strain 9185; 26° C., 48 hours; read-out: Minimum Inhibitory Concentration
Klebsiella penumoniae = assay: MIC aerobic screen, H-59 synthetic agar; conditions: read-out: Minimum Inhibitory Concentration
Proteus morganii = assay: MIC aerobic screen, BA-2 agar; conditions: Morganella morganii, strain 9774
[11] = read-out: Minimum Inhibitory Concentration, Table I, BA-2 agar
[12] = read-out: Minimum Inhibitory Concentration, Table II, additional tests

## CC1(O)CC(C(N)=O)N=C1c1ncccc1O (stereo not drawn) [EM4940A, 2,4-trans-3,4-dihydro-4-hydroxy-5-(3-hydroxy-2-pyridinyl)-4-methyl-2H-pyrrole-2-carboxamide]
Streptococcus faecalis
  MIC: > 100 µg/mL
Pseudomonas aeruginosa [1]; read-out: Minimum Inhibitory Concentration, Table III, H-59 agar, strain 8754
  MIC: > 100 µg/mL
Pseudomonas aeruginosa [1]; read-out: Minimum Inhibitory Concentration, Table III, H-59 agar, strain 9330
  MIC: 50 µg/mL (≈ 213 µM)
Pseudomonas aeruginosa [1]; read-out: Minimum Inhibitory Concentration, Table III, H-59 agar, strain 9545
  MIC: 25 µg/mL (≈ 106 µM)
Enterobacter cloacae [2]
  MIC: 100 µg/mL (≈ 425 µM)
Bifidobacterium dentium
  MIC: > 100 µg/mL
Acholeplasma laidlawii
  MIC: 100 µg/mL (≈ 425 µM)
Serratia marcescens [3]; read-out: Minimum Inhibitory Concentration, Table I, BA-2 agar, strain 1111
  MIC: > 100 µg/mL
Serratia marcescens [3]; read-out: Minimum Inhibitory Concentration, Table I, BA-2 agar, strain 9782
  MIC: 100 µg/mL (≈ 425 µM)
Serratia marcescens [3]; read-out: Minimum Inhibitory Concentration, Table II, additional tests, strain 9782
  MIC: 50 µg/mL (≈ 213 µM)
Serratia marcescens [3]; read-out: Minimum Inhibitory Concentration, Table II, additional tests, strain 11,111
  MIC: 100 µg/mL (≈ 425 µM)
[4]
  MIC: 50 µg/mL (≈ 213 µM)
Enterobacter cloacae [5]; [11]
  MIC: > 100 µg/mL
Enterobacter cloacae [5]; [12]
  MIC: 50 µg/mL (≈ 213 µM)
Proteus rettgeri
  MIC: 50 µg/mL (≈ 213 µM)
solubility; hexane
  solubility: Insoluble
solubility; methanol, ethanol, ethyl acetate, acetone and chloroform
  solubility: soluble
solubility; water
  solubility: Insoluble
[6]
  MIC: 25 µg/mL (≈ 106 µM)
Escherichia coli; read-out: Minimum Inhibitory Concentration, Table III, H-59 agar, strain 10,404
  MIC: 50 µg/mL (≈ 213 µM)
Escherichia coli; read-out: Minimum Inhibitory Concentration, Table III, H-59 agar, strain 10,857
  MIC: 25 µg/mL (≈ 106 µM)
Shigella sonnei; Shigella sonnei, Table I, BA-2 agar, read-out: Minimum Inhibitory Concentration
  MIC: 50 µg/mL (≈ 213 µM)
Shigella sonnei; Table II, additional tests
  Minimum Inhibitory Concentration: 50 µg/mL
Pseudomonas aeruginosa [7]; read-out: Minimum Inhibitory Concentration, Table I, BA-2 agar, strain 8754
  MIC: > 100 µg/mL
Pseudomonas aeruginosa [7]; read-out: Minimum Inhibitory Concentration, Table I, BA-2 agar, strain 9330
  MIC: 50 µg/mL (≈ 213 µM)
Pseudomonas aeruginosa [7]; read-out: Minimum Inhibitory Concentration, Table I, BA-2 agar, strain 9545
  MIC: 25 µg/mL (≈ 106 µM)
Pseudomonas aeruginosa [7]; read-out: Minimum Inhibitory Concentration, Table II, additional tests, strain 8754
  MIC: 100 µg/mL (≈ 425 µM)
Pseudomonas aeruginosa [7]; read-out: Minimum Inhibitory Concentration, Table II, additional tests, strain 9330
  MIC: > 200 µg/mL
Pseudomonas aeruginosa [7]; read-out: Minimum Inhibitory Concentration, Table II, additional tests, strain 9545
  MIC: 12.5 µg/mL (≈ 53.1 µM)
Trichomonas vaginalis
  MIC: 12.5 µg/mL (≈ 53.1 µM)
M. canis
  MIC: 100 µg/mL (≈ 425 µM)
[8]; [11]
  MIC: 50 µg/mL (≈ 213 µM)
[8]; [12]
  MIC: 100 µg/mL (≈ 425 µM)
Clostridium sporogenes
  MIC: 12.5 µg/mL (≈ 53.1 µM)
Clostridium septicum
  MIC: 12.5 µg/mL (≈ 53.1 µM)
[9]
  MIC: 12.5 µg/mL (≈ 53.1 µM)
Clostridium histolyticum
  MIC: 12.5 µg/mL (≈ 53.1 µM)
Eubacterium lentum
  MIC: 12.5 µg/mL (≈ 53.1 µM)
Serratia marcescens [10]; Serratia marcescens, read-out: Minimum Inhibitory Concentration
  MIC: 100 µg/mL (≈ 425 µM)
Serratia marcescens [10]; Table III, H-59 agar, strain 11,111
  Minimum Inhibitory Concentration: 100.0 µg/mL
Hemophilus vaginalis; strain 8568, read-out: Minimum Inhibitory Concentration
  MIC: 100 µg/mL (≈ 425 µM)
Hemophilus vaginalis; strain 9640
  Minimum Inhibitory Concentration: 100.00 µg/mL
Klebsiella aerogenes; [11]
  MIC: 100 µg/mL (≈ 425 µM)
Klebsiella aerogenes; [12]
  MIC: 50 µg/mL (≈ 213 µM)
E. floccosum
  MIC: > 100 µg/mL
Klebsiella penumoniae
  MIC: 50 µg/mL (≈ 213 µM)
Proteus morganii; [11]
  MIC: 50 µg/mL (≈ 213 µM)
Proteus morganii; [12]
  MIC: 100 µg/mL (≈ 425 µM)
